Here are results for twelve compounds from patent US9409952B2, “Peptide-compound cyclization method” (Chugai Seiyaku Kabushiki Kaisha, priority 2011, dated 2016).

A short description of series [1]: PAMPA (parallel artificial membrane permeability assay). It is filed as in vitro ADME. The conditions noted are these: PAMPA. The procedure, abridged: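 Artificial membrane was 10% (w/v) egg lecithin plus 0.5% (w/v) cholesterol in dodecane on a PVDF filter. A 10 mM DMSO stock was added at 0.5% (v/v) to donor buffer (50 mM MOPSO, pH 6.5, 5.0% glycocholic acid). After 18 h at 37 °C, LC/MS or LC/UV gave donor and acceptor levels for Pe.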

Series [2] in a line: Metabolic stability in human hepatic microsome. It counts as in vitro ADME. The conditions noted are these: microsomes.
The mark [3] stands for this setting: membrane permeation rate (Pe), 50 mM MOPSO buffer pH 6.5 with 5.0% glycocholic acid, 37° C., 18 hours, read-out: iPAMPA Pe.
[4] abbreviates: pH 7.4, human hepatic microsome, NADPH(+), read-out: CL NADPH(+).

SMILES strings stand for the structures. Like-named read-outs stand apart in the source and are kept apart here. Starred links: 1 amine or outer side, 2 acyl side, 3 side chain; linkers in the order of their positions; H or OH if unused. Positions of bridges follow the written chain, without caps; N, C: chain ends. Non-standard residues stand in square brackets, D forms with d. Residues, ends and D or L forms follow the SMILES beside them. *: point of attachment. NMeF = CN[C@@H](Cc1ccccc1)C(=O)O; NMeGABA = CN(CCCC(=O)[*:2])[*:1]; NMeI = CC[C@H](C)[C@H](NC)C(=O)O; NMeβAla = CN(CCC(=O)[*:2])[*:1]; NMeL = CN[C@@H](CC(C)C)C(=O)O; NMeV = CN[C@H](C(=O)O)C(C)C; NMeA = CN[C@@H](C)C(=O)O; Piperidide = C1CCN(*)CC1; dNMeA = CN[C@H](C)C(=O)O; Sar = CNCC(=O)O; tBu = CC(C)(C)*

As for `CC[C@H](C)[C@H]1C(=O)NCC(=O)N(C)[C@@H](CC(C)C)C(=O)N[C@@H](CC(C)C)C(=O)N[C@H](C(=O)N2CCCCC2)CC(=O)N(C)[C@@H](C)C(=O)N[C@@H](CC(C)C)C(=O)N(C)[C@@H](C)C(=O)N[C@@H]([C@@H](C)O)C(=O)N2CCC[C@H]2C(=O)N(C)[C@@H](Cc2ccccc2)C(=O)N[C@@H](Cc2ccccc2)C(=O)N1C` [DP-220] ([NMeA]L[NMeA]TP[NMeF]F[NMeI]G[NMeL]LD-Piperidide; lactam N-12), the Papp at 18 hours, 50 µM in series [1] (pH 6.5) stood at 33 ×10⁻⁶ cm/s. For the same compound, the microsomal CLint at 1 uM in series [2] (human, pH 7.4, CL NADPH(+)) is 26 µL/min/mg.

As to `CC[C@H](C)[C@H]1C(=O)N[C@@H](Cc2ccccc2)C(=O)N[C@H](C(=O)N2CCCCC2)CC(=O)N(C)CCC(=O)N(C)[C@@H](C(C)C)C(=O)N[C@@H](Cc2ccccc2)C(=O)N[C@@H](CC(C)C)C(=O)N(C)[C@@H](C)C(=O)N[C@@H]([C@@H](C)O)C(=O)N[C@@H](CC(C)C)C(=O)N(C)[C@@H](CC(C)C)C(=O)NCC(=O)N1C` [DP-221] ([NMeβAla][NMeV]FL[NMeA]TL[NMeL]G[NMeI]FD-Piperidide; lactam N-12), in series [1] (setting [3]), the Papp at 18 hours, 50 µM was found to be 31 ×10⁻⁶ cm/s. For the same compound, the microsomal CLint at 1 uM in series [2] (setting [4]) is 75 µL/min/mg.

As for `CC[C@H](C)[C@H]1C(=O)N[C@H](C(=O)N2CCCCC2)CC(=O)N(C)CCC(=O)N[C@@H](Cc2ccccc2)C(=O)N(C)[C@@H](CC(C)C)C(=O)N[C@@H](COC(C)(C)C)C(=O)NCC(=O)N2CCC[C@H]2C(=O)N[C@@H]([C@@H](C)O)C(=O)N[C@@H](CC(C)C)C(=O)N(C)[C@@H](C)C(=O)N[C@@H](Cc2ccccc2)C(=O)N1C` [DP-222] ([NMeβAla]F[NMeL]S(tBu)GPTL[NMeA]F[NMeI]D-Piperidide; lactam N-12), the Papp at 18 hours, 50 µM in series [1] (setting [3]) is 16 ×10⁻⁶ cm/s. The microsomal CLint at 1 uM in series [2] (setting [4]) was 30 µL/min/mg.

With `CC[C@H](C)[C@H]1C(=O)N[C@H](C(=O)N2CCCCC2)CC(=O)N(C)[C@H](C)C(=O)N(C)[C@@H](C(C)C)C(=O)N[C@@H](Cc2ccccc2)C(=O)N[C@@H](CC(C)C)C(=O)N(C)[C@@H](C)C(=O)N[C@@H]([C@@H](C)O)C(=O)N[C@@H](Cc2ccccc2)C(=O)N(C)[C@@H](CC(C)C)C(=O)N[C@@H](CC(C)C)C(=O)NCC(=O)N1C` [DP-223] ([dNMeA][NMeV]FL[NMeA]TF[NMeL]LG[NMeI]D-Piperidide; lactam N-12), the Papp at 18 hours, 50 µM in series [1] (setting [3]) came to 23 ×10⁻⁶ cm/s. In addition, in series [2] (setting [4]), the microsomal CLint at 1 uM worked out at 42 µL/min/mg.

`CC[C@H](C)[C@H]1C(=O)N[C@@H](Cc2ccccc2)C(=O)N(C)[C@@H](CC(C)C)C(=O)N[C@@H](CC(C)C)C(=O)N[C@H](C(=O)N2CCCCC2)CC(=O)N(C)[C@H](C)C(=O)N[C@@H](CC(C)C)C(=O)N(C)[C@@H](C)C(=O)N2CCC[C@H]2C(=O)N[C@@H]([C@@H](C)O)C(=O)N(C)[C@@H](Cc2ccccc2)C(=O)NCC(=O)N1C` [DP-224] ([dNMeA]L[NMeA]PT[NMeF]G[NMeI]F[NMeL]LD-Piperidide; lactam N-12) yielded a Papp at 18 hours, 50 µM in series [1] (pH 6.5) of 18 ×10⁻⁶ cm/s. The compound further came in with a microsomal CLint at 1 uM in series [2] (human, pH 7.4, CL NADPH(+)) of 18 µL/min/mg.

In the case of `CC[C@H](C)[C@H]1C(=O)N(C)[C@@H](CC(C)C)C(=O)N[C@H](C(=O)N2CCCCC2)CC(=O)N(C)CCCC(=O)N(C)[C@@H](Cc2ccccc2)C(=O)N[C@@H](Cc2ccccc2)C(=O)N2CCC[C@H]2C(=O)N[C@@H](CC(C)C)C(=O)N(C)[C@@H](C(C)C)C(=O)N[C@@H]([C@@H](C)O)C(=O)N(C)CC(=O)N[C@@H](C)C(=O)N1C` [DP-225] ([NMeGABA][NMeF]FPL[NMeV]T[Sar]A[NMeI][NMeL]D-Piperidide; lactam N-12), the Papp at 18 hours, 50 µM in series [1] (setting [3]) is 16 ×10⁻⁶ cm/s. In series [2] (setting [4]), the microsomal CLint at 1 uM stood at 32 µL/min/mg.

Consider `CC[C@H](C)[C@@H]1NC(=O)[C@H](Cc2ccccc2)N(C)C(=O)[C@H](Cc2ccccc2)NC(=O)[C@H](C(C)C)N(C)C(=O)[C@H](CC(C)C)N(C)C(=O)[C@H](CC(C)C)NC(=O)[C@@H](C)NC(=O)C[C@@H](C(=O)N2CCCCC2)NC(=O)[C@H]([C@@H](C)O)NC(=O)[C@H](C)NC(=O)[C@H](C)N(C)C1=O` [DP-226] ([dA]L[NMeL][NMeV]F[NMeF]I[NMeA]ATD-Piperidide; lactam N-11), for which, in series [1] (setting [3]), the Papp at 18 hours, 50 µM stood at 32 ×10⁻⁶ cm/s. In addition, the microsomal CLint at 1 uM in series [2] (setting [4]) is 46 µL/min/mg.

On to `CC[C@H](C)[C@H]1C(=O)N[C@@H]([C@@H](C)O)C(=O)N[C@@H](Cc2ccccc2)C(=O)N2CCC[C@H]2C(=O)NCC(=O)N(C)[C@@H](CC(C)C)C(=O)N[C@H](C(=O)N2CCCCC2)CC(=O)N[C@H](C)C(=O)N[C@@H](Cc2ccccc2)C(=O)N(C)[C@@H](CC(C)C)C(=O)N[C@@H](CC(C)C)C(=O)N1C` [DP-227] ([dA]F[NMeL]L[NMeI]TFPG[NMeL]D-Piperidide; lactam N-11), for which the Papp at 18 hours, 50 µM in series [1] (pH 6.5) amounted to 38 ×10⁻⁶ cm/s. The compound also yielded a microsomal CLint at 1 uM in series [2] (human, pH 7.4, CL NADPH(+)) of 141 µL/min/mg.

Take `CC[C@H](C)[C@H]1C(=O)N[C@@H]([C@@H](C)O)C(=O)N[C@@H](CC(C)C)C(=O)N[C@H](C(=O)N2CCCCC2)CC(=O)N[C@H](C)C(=O)N(C)[C@@H](CC(C)C)C(=O)N(C)[C@@H](CC(C)C)C(=O)N(C)[C@@H](Cc2ccccc2)C(=O)N(C)[C@@H](CC(C)C)C(=O)N(C)[C@@H](Cc2ccccc2)C(=O)N[C@@H](C)C(=O)N1C` [DP-228] ([dA][NMeL][NMeL][NMeF][NMeL][NMeF]A[NMeI]TLD-Piperidide; lactam N-11): the Papp at 18 hours, 50 µM in series [1] (setting [3]) turned out to be 5.2 ×10⁻⁶ cm/s. In addition, in series [2] (setting [4]), the microsomal CLint at 1 uM is 28 µL/min/mg.

For the compound `CC[C@H](C)[C@H]1C(=O)N[C@@H](Cc2ccccc2)C(=O)N[C@H](C(=O)N2CCCCC2)CC(=O)N[C@H](C)C(=O)N[C@@H](C)C(=O)N(C)[C@@H](CC(C)C)C(=O)N(C)[C@@H](CC(C)C)C(=O)N(C)[C@@H](Cc2ccccc2)C(=O)N[C@@H]([C@@H](C)O)C(=O)N(C)[C@@H](C)C(=O)N(C)[C@@H](C(C)C)C(=O)N1C` [DP-229] ([dA]A[NMeL][NMeL][NMeF]T[NMeA][NMeV][NMeI]FD-Piperidide; lactam N-11), the Papp at 18 hours, 50 µM in series [1] (setting [3]) is 33 ×10⁻⁶ cm/s. In addition, the microsomal CLint at 1 uM in series [2] (setting [4]) stood at 100 µL/min/mg.

For the compound `CC[C@H](C)[C@@H]1NC(=O)[C@H](Cc2ccccc2)N(C)C(=O)[C@H](C(C)C)N(C)C(=O)[C@H](Cc2ccccc2)NC(=O)[C@H](CC(C)C)N(C)C(=O)[C@H](CC(C)C)NC(=O)[C@@H](C(C)C)NC(=O)C[C@@H](C(=O)N2CCCCC2)NC(=O)[C@H]([C@@H](C)O)NC(=O)[C@H](C)NC(=O)[C@H](C)N(C)C1=O` [DP-230] ([dV]L[NMeL]F[NMeV][NMeF]I[NMeA]ATD-Piperidide; lactam N-11), the Papp at 18 hours, 50 µM in series [1] (setting [3]) worked out at 44 ×10⁻⁶ cm/s. Besides, in series [2] (setting [4]), the microsomal CLint at 1 uM amounted to 31 µL/min/mg.

`CC[C@H](C)[C@H]1C(=O)NCC(=O)N[C@@H]([C@@H](C)O)C(=O)N2CCC[C@H]2C(=O)N[C@@H](Cc2ccccc2)C(=O)N(C)[C@@H](CC(C)C)C(=O)N[C@H](C(=O)N2CCCCC2)CC(=O)N[C@H](C(C)C)C(=O)N[C@@H](Cc2ccccc2)C(=O)N(C)[C@@H](CC(C)C)C(=O)N[C@@H](CC(C)C)C(=O)N1C` [DP-231] ([dV]F[NMeL]L[NMeI]GTPF[NMeL]D-Piperidide; lactam N-11) displayed a Papp at 18 hours, 50 µM in series [1] (pH 6.5) of 18 ×10⁻⁶ cm/s. In series [2] (human, pH 7.4, CL NADPH(+)), this compound registered a microsomal CLint at 1 uM of 56 µL/min/mg.
